Consider two compounds from US20240366626A1, “OPHTHALMIC PREPARATION FOR MYOPIA SUPPRESSION” (TSUBOTA LABORATORY, INC., priority 2021, published 2024).

“Also recorded” adds a separate entry of the source. Where a name gives a salt, the structure may show the parent alone.

The subject of the test is mouse myopia model. Briefly: Mouse myopia model (−30D lens on right eye, 0D on left), eye drops for three weeks; change in refractive index and axial length measured. Particulars: for myopia suppressing effect (overall conclusion): mouse myopia model, eye drops for three weeks; for change in refractive index / change in axial length: −30D lens eyes vs OD lens eyes after three weeks of eye drops, bunazosin two drops once or twice per day, unoprostone two drops once per day; for change in refractive index: infrared photorefractor; for change in axial length: spectral domain OCT. It counts as in vivo, mice (C57BL6/J). On the procedure:
The present inventors, with a focus on the fact that certain glaucoma ophthalmic preparations are effective in suppressing myopia progression, attempted to find myopia progression suppressing effects from existing glaucoma ophthalmic preparations. In the present application, glaucoma ophthalmic preparations were administered to a mouse myopia model, and an axial length and a refractive index were measured to evaluate whether the eye drops were effective in suppressing the progression of axial myopia.
Eye drops were continuously administered for three weeks, with phosphate buffered saline (PBS) eye drops as the control group and bunazosin eye drops as the test group. Bunazosin is the main ingredient of a Detantol ophthalmic solution, and bunazosin eye drops were administered using Detantol 0.01% ophthalmic solution (manufactured by Santen Pharmaceutical Co. Ltd., 1 mL contains 0.1 mg of bunazosin hydrochloride). The number of eye drops was two drops once per day and twice a day (two drops each in the morning and evening). The refractive index and the axial length of the mouse eyeball after three weeks were measured and the amounts of change were calculated.
The refractive values were measured by using an infrared photorefractor for mice (manufactured by Prof. Schaeffel, University of Tubingen). The axial lengths were measured by using spectral domain optical coherence tomography (Envisu R4310, manufactured by Leica).
Mice similar to those in Experiment 1 were used to induce myopia. Eye drops were continually administered for three weeks, with PBS eye drops as the control group and unoprostone eye drops as the test group. Unoprostone is the main ingredient of a Rescula ophthalmic solution, and unoprostone eye drops were administered (two drops once per day, per eye) with Rescula ophthalmic solution 0.12% (Nitto Medic Co., Ltd., 1 mL contains 1.2 mg of isopropyl unoprostone). The refractive index and the axial length of the mouse eyeball after three weeks were measured and the amounts of change were calculated. The refractive index measurement and the axial length measurement were the same as in Experiment 1.

The mark [1] stands for this setting: two drops once per day vs twice a day, three weeks.

Take `CCCC(=O)N1CCCN(c2nc(N)c3cc(OC)c(OC)cc3n2)CC1` [bunazosin, bunazosin hydrochloride]: the “change in refractive index” value is “no significant difference between the eyes with the −30D lenses and the eyes with OD lenses”; the “change in axial length” value was “substantially no difference in the axial lengths between the two eyes”. Under “hydrochloride”, the “myopia suppressing effect (overall conclusion)” value is reported as “exhibited a myopia-suppressing effect; also recorded: exhibits a myopia suppressing effect”. For the same compound, under setting [1], the “comparison of dosing frequency (once vs twice per day), axial length” value is “no difference between one eye drop and two eye drops”; the “comparison of dosing frequency (once vs twice per day), refractive index” value was “one eye drop has a greater myopia suppressing effect than two eye drops”.
As to `CCCCCCCC(=O)CC[C@@H]1[C@@H](C/C=C\CCCC(=O)OC(C)C)[C@@H](O)C[C@H]1O` [unoprostone, isopropyl unoprostone], the “myopia suppressing effect (overall conclusion)” value was “did not exhibit a myopia suppressing effect; also recorded: does not exhibit a myopia suppressing effect”; the “change in refractive index” value is “both eyes became myopic and no myopia suppressing effect of the eye drops was confirmed”; the “change in axial length” value is given as “no significant difference in the axial lengths of the two eyes was confirmed”.
